In ChEMBL document CHEMBL3862010, “N-Arylsulfonyl-α-amino carboxamides are potent and selective inhibitors of the chemokine receptor CCR10 that show efficacy in the murine DNFB model of contact hypersensitivity” (Bioorg Med Chem Lett, 2016):

Assays:
[1] = molecular target: T1, C-C chemokine receptor type 10 (Homo sapiens, UniProt P46092); assay: Antagonist activity at human CCR10 expressed in CHOK1 cells coexpressing aequorin/Galphaq assessed as inhibition of human CCL27-dependent calcium flux in presence of coelenterazine H by chemiluminescence assay; type: functional, cell-based, CHO-K1
T1 sequence (P46092 whole entry): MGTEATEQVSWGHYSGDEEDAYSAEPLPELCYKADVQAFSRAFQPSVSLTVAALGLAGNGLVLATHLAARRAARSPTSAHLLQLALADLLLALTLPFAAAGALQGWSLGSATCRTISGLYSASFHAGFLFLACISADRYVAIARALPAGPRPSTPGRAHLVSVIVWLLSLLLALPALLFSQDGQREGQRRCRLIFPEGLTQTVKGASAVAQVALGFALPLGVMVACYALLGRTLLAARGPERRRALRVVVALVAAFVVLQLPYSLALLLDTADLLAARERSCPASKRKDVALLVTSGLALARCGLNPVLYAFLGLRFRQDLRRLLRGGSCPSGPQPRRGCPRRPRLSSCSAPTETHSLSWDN

[2] = molecular target: T2, C-C chemokine receptor type 10 (Mus musculus, UniProt Q9JL21); assay: Antagonist activity at mouse CCR10 expressed in CHOK1 cells coexpressing aequorin/Galphaq assessed as inhibition of CCL27-dependent calcium flux in presence of coelenterazine H by chemiluminescence assay; type: functional, cell-based, CHO-K1
T2 sequence (Q9JL21 whole entry): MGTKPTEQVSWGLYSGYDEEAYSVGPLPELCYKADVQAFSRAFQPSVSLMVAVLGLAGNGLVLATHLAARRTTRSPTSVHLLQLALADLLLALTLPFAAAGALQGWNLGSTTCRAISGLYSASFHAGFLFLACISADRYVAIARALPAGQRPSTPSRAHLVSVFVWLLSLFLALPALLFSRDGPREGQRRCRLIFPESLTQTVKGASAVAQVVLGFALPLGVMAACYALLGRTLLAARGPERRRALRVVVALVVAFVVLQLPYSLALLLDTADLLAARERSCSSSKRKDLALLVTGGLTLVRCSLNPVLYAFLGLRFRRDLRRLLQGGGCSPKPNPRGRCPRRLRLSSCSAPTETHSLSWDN

[3] = Protein binding in Balb/C mouse plasma at 100 mg/kg, ip bid; type: ADME, organism-based; conditions: in vivo
[4] = Plasma concentration in Balb/C mouse at 100 mg/kg, ip bid measured after 1 hr; type: ADME, organism-based; conditions: in vivo
[5] = Plasma concentration in Balb/C mouse at 30 mg/kg, ip bid measured after 1 hr; type: ADME, organism-based; conditions: in vivo, 1 h
[6] = molecular target: T1, C-C chemokine receptor type 10; assay: Antagonist activity at human CCR10 expressed in CHOK1 cells coexpressing aequorin/Galphaq assessed as inhibition of CCL27-dependent calcium flux in presence of coelenterazine H by FLIPR assay; type: functional, cell-based, CHO-K1
[7] = molecular target: T1, C-C chemokine receptor type 10; assay: Antagonist activity at human CCR10 expressed in CHOK1 cells coexpressing aequorin/Galphaq assessed as inhibition of human CCL28-dependent calcium flux by FLIPR assay; type: functional, cell-based, CHO-K1
[8] = molecular target: T1, C-C chemokine receptor type 10; assay: Antagonist activity at human CCR10 expressed in CHOK1 cells coexpressing aequorin/Galphaq assessed as inhibition of human CCL28-dependent calcium flux by chemiluminescence assay; type: functional, cell-based, CHO-K1

| IC50 ([1]; read-out: pIC50 (converted)) [nM] | SMILES | further results |
| --- | --- | --- |
| 10 | N#Cc1cccn1CCC(NS(=O)(=O)c1cccc2[nH]ccc12)C(=O)N1CCCCC1 (stereo not drawn) | – |
| 794 | CC1CCCCN1C(=O)C(CCn1cccc1C#N)NS(=O)(=O)c1cc(Cl)c(N)c(Cl)c1 (stereo not drawn) | – |
| 126 | CC1CCN(C(=O)C(CCc2ccccc2Cl)NS(=O)(=O)c2cc(Cl)c(N)c(Cl)c2)CC1 (stereo not drawn) | – |
| 501 | CC1CCN(C(=O)C(CCn2ccnc2Cl)NS(=O)(=O)c2cc(Cl)c(N)c(Cl)c2)CC1 (stereo not drawn) | IC50 [2]: > 20000 nM |
| 501 | CC1CCN(C(=O)[C@@H](CCn2ccnc2[N+](=O)[O-])NS(=O)(=O)c2cc(Cl)c(N)c(Cl)c2)CC1 | – |
| 3160 | CC1CCN(C(=O)C(CCn2cccc2C#N)NS(=O)(=O)c2cccc3[nH]ccc23)CC1 (stereo in doubt; form 2) | IC50 [2]: 15800 nM; PPB [3]: 99%; concentration [4]: 18 µM; concentration [5]: 3.2 µM |
| > 20000 | CC1CCN(C(=O)C(CCn2ccnn2)NS(=O)(=O)c2cc(Cl)c(N)c(Cl)c2)CC1 (stereo not drawn) | – |
| 7.94 | CC1CCN(C(=O)[C@@H](CCn2cccc2C#N)NS(=O)(=O)c2cc(Cl)c(N)c(Cl)c2)CC1 | – |
| > 10000 | N#Cc1cccn1CCC(NS(=O)(=O)c1cc(Cl)c(N)c(Cl)c1)C(=O)N1CCCC1 (stereo not drawn) | – |
| 126 | CC1CCN(C(=O)C(CCn2cccc2C#N)NS(=O)(=O)c2cccc3c2ccn3C)CC1 (stereo not drawn) | IC50 [2]: 6310 nM |
| 1260 | CC1CCN(C(=O)C(CCn2cccc2C#N)NS(=O)(=O)c2ccccc2)CC1 (stereo not drawn) | IC50 [2]: > 20000 nM |
| 10 | N#Cc1cccn1CCC(NS(=O)(=O)c1cccc2[nH]ccc12)C(=O)N1CCC(C(F)(F)F)CC1 (stereo not drawn) | – |
| – | CC1CCN(C(=O)C(CCn2ccnc2)NS(=O)(=O)c2cc(Cl)c(N)c(Cl)c2)CC1 (stereo not drawn) | IC50 [6]: > 20000 nM |
| 158 | N#Cc1cccn1CCC(NS(=O)(=O)c1cc(Cl)c(N)c(Cl)c1)C(=O)N1CCCCC1 (stereo not drawn) | – |
| > 10000 | CC1CCN(C(=O)[C@H](CCc2ccccc2)NS(=O)(=O)c2cc(Cl)c(N)c(Cl)c2)CC1 | – |
| 398 | N#Cc1cccn1CCC(NS(=O)(=O)c1cc(Cl)c(N)c(Cl)c1)C(=O)N1CCC(C(F)(F)F)CC1 (stereo not drawn) | – |
| 251 | N#Cc1cccn1CCC(NS(=O)(=O)c1cc(Cl)c(N)c(Cl)c1)C(=O)N1CCCCCC1 (stereo not drawn) | – |
| 251 | CC1CCN(C(=O)C(CCn2nccc2Cl)NS(=O)(=O)c2cc(Cl)c(N)c(Cl)c2)CC1 (stereo not drawn) | – |
| 39.8 | CC1CCN(C(=O)C(CCn2cccc2C#N)NS(=O)(=O)c2c(N)cc(Cl)cc2Cl)CC1 (stereo not drawn) | – |
| 1260 | CC1CCN(C(=O)C(CCn2cccc2)NS(=O)(=O)c2cc(Cl)c(N)c(Cl)c2)CC1 (stereo not drawn) | – |
| 20 | CC1CCCCN1C(=O)C(CCn1cccc1C#N)NS(=O)(=O)c1cccc2[nH]ccc12 (stereo not drawn) | – |
| – | CC1CCN(C(=O)C(CCn2ccnc2[N+](=O)[O-])NS(=O)(=O)c2cc(Cl)c(N)c(Cl)c2)CC1 (stereo not drawn) | IC50 ([1]; read-out: IC50): 690 nM; IC50 [2]: > 20000 nM; IC50 [6]: 251 nM; IC50 [7]: 794 nM; IC50 [8]: 794 nM |
